Laboratory results from ChEMBL document CHEMBL4402545, “Subtype Selective γ-Aminobutyric Acid Type A Receptor (GABAAR) Modulators Acting at the Benzodiazepine Binding Site: An Update” (J Med Chem, 2020).
pKi: −log10 of the molar value.

Assays:
Rhesus monkey = assay: In vivo receptor occupancy at GABAA receptor in iv dosed rhesus monkey assessed as plasma concentration causing 50% reduction in [11C]-flumazenil receptor labeling by PET method; type: functional, Macaca mulatta
Rattus norvegicus [1] = assay: In vivo receptor occupancy at GABAA receptor in po dosed Sprague-Dawley rat assessed as brain concentration causing 50% reduction in [3H]-flumazenil receptor labeling after 0.5 hrs; type: functional
[2] = target: T1, Gamma-aminobutyric acid receptor subunit alpha-1 (Homo sapiens, UniProt P14867); assay: Binding affinity to GABA-A alpha1 (unknown origin)
T1 sequence (P14867 whole entry): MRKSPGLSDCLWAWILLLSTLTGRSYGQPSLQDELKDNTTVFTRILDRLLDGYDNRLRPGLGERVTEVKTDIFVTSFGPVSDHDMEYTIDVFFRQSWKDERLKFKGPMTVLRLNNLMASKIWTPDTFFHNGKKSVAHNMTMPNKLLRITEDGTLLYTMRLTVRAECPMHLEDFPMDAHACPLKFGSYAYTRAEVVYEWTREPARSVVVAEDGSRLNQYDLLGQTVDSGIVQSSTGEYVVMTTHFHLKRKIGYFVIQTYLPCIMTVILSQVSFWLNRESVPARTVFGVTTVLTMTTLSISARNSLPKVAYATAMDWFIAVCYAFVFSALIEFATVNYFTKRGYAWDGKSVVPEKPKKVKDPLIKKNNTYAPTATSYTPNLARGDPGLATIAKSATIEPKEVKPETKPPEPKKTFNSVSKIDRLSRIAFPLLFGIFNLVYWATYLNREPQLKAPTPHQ

[3] = target: T2, Gamma-aminobutyric acid receptor subunit alpha-3 (Homo sapiens, UniProt P34903); assay: Binding affinity to GABA-A alpha3 (unknown origin)
T2 sequence (P34903 whole entry): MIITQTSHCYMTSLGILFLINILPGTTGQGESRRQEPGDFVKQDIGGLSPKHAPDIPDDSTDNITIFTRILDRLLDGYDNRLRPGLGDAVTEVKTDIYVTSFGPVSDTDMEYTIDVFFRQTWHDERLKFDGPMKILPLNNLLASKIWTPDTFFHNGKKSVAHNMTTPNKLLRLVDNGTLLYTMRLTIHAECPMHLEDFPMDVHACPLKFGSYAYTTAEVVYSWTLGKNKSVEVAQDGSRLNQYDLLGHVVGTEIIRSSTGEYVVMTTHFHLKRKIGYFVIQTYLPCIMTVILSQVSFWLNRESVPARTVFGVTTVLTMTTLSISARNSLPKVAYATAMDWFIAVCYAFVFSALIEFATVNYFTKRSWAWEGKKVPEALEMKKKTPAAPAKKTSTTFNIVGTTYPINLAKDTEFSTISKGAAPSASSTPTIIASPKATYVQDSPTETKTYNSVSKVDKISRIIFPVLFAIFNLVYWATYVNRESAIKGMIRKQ

[4] = target: T3, Gamma-aminobutyric acid receptor subunit alpha-2 (Homo sapiens, UniProt P47869); assay: Binding affinity to GABA-A alpha2 (unknown origin)
T3 sequence (P47869 whole entry): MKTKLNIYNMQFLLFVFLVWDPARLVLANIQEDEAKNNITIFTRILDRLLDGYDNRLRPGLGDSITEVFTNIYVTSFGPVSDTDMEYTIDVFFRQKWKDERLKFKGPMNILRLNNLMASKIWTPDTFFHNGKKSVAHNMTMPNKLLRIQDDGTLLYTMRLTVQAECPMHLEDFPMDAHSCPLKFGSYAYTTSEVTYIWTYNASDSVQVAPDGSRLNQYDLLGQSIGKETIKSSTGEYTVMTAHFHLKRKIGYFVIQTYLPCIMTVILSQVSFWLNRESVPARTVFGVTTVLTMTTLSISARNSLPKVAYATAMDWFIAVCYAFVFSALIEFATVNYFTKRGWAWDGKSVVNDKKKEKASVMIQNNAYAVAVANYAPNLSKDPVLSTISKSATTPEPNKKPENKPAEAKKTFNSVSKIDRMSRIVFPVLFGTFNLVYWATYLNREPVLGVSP

Homo sapiens [5] = assay: In vivo receptor occupancy at GABAA receptor in human at 5 mg, po relative to control; type: functional
Rattus norvegicus [6] = assay: In vivo receptor occupancy at GABAA receptor in po dosed Sprague-Dawley rat assessed as plasma concentration causing 50% reduction in [3H]-flumazenil receptor labeling after 0.5 hrs; type: functional
[7] = target: T4, Gamma-aminobutyric acid receptor subunit alpha-5 (Homo sapiens) (UniProt P31644); assay: Binding affinity to GABA-A alpha5 (unknown origin) assessed as reduction in DMCM induced current relative to DMCM
T4 sequence (whole entry): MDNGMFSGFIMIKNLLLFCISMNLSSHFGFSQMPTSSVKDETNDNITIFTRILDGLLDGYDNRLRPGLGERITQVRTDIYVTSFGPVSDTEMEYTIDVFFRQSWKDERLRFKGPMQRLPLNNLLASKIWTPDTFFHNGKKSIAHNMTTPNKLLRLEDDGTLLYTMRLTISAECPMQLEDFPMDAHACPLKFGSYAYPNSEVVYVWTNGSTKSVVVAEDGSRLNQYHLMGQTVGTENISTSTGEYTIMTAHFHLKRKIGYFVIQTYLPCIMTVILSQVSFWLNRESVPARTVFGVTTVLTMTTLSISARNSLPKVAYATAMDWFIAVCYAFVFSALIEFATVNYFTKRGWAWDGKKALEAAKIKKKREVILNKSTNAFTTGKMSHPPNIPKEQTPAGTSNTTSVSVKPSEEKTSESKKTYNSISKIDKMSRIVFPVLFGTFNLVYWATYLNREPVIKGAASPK

[8] = target: T5, Gamma-aminobutyric acid receptor subunit alpha-2 (Homo sapiens) (UniProt P47869); assay: Binding affinity to GABA-A alpha2 (unknown origin) assessed as reduction in DMCM induced current relative to DMCM
T5 sequence (whole entry): T3 sequence (P47869 whole entry)

[9] = target: T6, Gamma-aminobutyric acid receptor subunit alpha-3 (Homo sapiens) (UniProt P34903); assay: Binding affinity to GABA-A alpha3 (unknown origin) assessed as reduction in DMCM induced current relative to DMCM
T6 sequence (whole entry): T2 sequence (P34903 whole entry)

Mus musculus = assay: In vivo receptor occupancy at GABAA receptor in po dosed mouse assessed as brain concentration causing 50% reduction in [3H]-flumazenil receptor labeling; type: functional
Homo sapiens [10] = assay: In vivo receptor occupancy at GABAA receptor in po dosed human assessed as plasma concentration causing 50% reduction in [11C]-flumazenil receptor labeling; type: functional
[11] = target: T7, Gamma-aminobutyric acid receptor subunit alpha-1 (Homo sapiens) (UniProt P14867); assay: Negative allosteric modulation of GABA-A alpha1 (unknown origin) assessed as reduction in DMCM induced current relative to DMCM
T7 sequence (whole entry): T1 sequence (P14867 whole entry)

Homo sapiens [12] = assay: In vivo receptor occupancy at GABAA receptor in human assessed as brain concentration causing reduction in [11C]-flumazenil receptor labeling at 2 mg after 1 hr by PET relative to control; type: functional
Rattus norvegicus [13] = assay: In vivo receptor occupancy at GABAA receptor in po dosed rat assessed as brain concentration causing 50% reduction in [3H]-flumazenil receptor labeling; type: functional
[14] = target: T8, Gamma-aminobutyric acid receptor subunit alpha-5 (Homo sapiens, UniProt P31644); assay: Binding affinity to GABA-A alpha5 (unknown origin)
T8 sequence (P31644 whole entry): T4 sequence (whole entry)

pKi [2]	pKi [3]	pKi [4]	Efficacy [7]	Efficacy [8]	Efficacy [9]	Efficacy [11]	pKi [14]	SMILES	Occ50 (Rhesus monkey)	Occ50 (Rattus norvegicus [1])	Occ (Homo sapiens [5])	Occ50 (Rattus norvegicus [6])	Occ50 (Mus musculus)	Occ50 (Homo sapiens [10])	Occ (Homo sapiens [12])	Occ50 (Rattus norvegicus [13])
9.08	9.11	9.07	–	–	–	–	–	Cc1cc(-c2nncc3c(C(C)(C)C)c(OCc4ncnn4C)nn23)no1	21 ng/mL	0.39 mg/kg	75%	15 ng/mL	–	–	–	–
9.06	9.21	9.24	-0.7	0.1	-0.11	-0.25	9.18	Cc1cc(-c2nnc3c4ccccc4c(OCc4cn(C)nn4)nn23)no1	–	–	–	–	0.25 mg/kg	10 ng/mL	50%	0.12 mg/kg
